In ChEMBL document CHEMBL1156967 (Bioorg Med Chem Lett, 2010):
pIC50: −log10 of the molar value.

Assays:
Rattus norvegicus [1] = test: Antiinflammatory activity in Lewis rat plasma assessed as reduction in LPS-stimulated TNFalpha accumulation at 5 mg/kg, ig administered 4 hrs before LPS challenge measured after […] by ELISA; type: functional; settings: po, route intragastric
[2] = molecular target: Mitogen-activated protein kinase 14 (Homo sapiens, UniProt Q16539); test: Inhibition of p38alpha assessed as gamma-[33P]ATP incorporation by scintillation counting
Mitogen-activated protein kinase 14, sequence (Q16539 whole entry): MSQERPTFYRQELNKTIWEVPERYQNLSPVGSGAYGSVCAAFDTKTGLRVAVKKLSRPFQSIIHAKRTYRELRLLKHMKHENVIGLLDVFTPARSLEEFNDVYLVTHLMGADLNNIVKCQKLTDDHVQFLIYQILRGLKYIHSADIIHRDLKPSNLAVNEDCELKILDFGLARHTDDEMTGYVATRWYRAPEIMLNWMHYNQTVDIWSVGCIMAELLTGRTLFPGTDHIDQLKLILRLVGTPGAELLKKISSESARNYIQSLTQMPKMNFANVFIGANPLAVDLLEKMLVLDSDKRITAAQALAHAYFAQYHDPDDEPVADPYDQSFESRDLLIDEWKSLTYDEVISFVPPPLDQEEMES

[3] = molecular target: Mitogen-activated protein kinase 11 (Homo sapiens, UniProt Q15759); test: Inhibition of p38beta assessed as gamma-[33P]ATP incorporation by scintillation counting
Mitogen-activated protein kinase 11, sequence (Q15759 whole entry): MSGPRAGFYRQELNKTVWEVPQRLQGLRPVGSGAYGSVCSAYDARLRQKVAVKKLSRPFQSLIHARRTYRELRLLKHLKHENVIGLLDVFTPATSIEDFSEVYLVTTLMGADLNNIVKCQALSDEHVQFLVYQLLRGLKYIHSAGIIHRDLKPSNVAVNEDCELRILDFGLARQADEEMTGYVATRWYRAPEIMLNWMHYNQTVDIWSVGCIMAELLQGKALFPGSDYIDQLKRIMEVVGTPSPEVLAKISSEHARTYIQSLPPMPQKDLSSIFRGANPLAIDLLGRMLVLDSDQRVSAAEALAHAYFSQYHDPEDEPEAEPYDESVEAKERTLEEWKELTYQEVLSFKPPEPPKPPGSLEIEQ

[4] = Intrinsic clearance in human liver microsomes; type: ADME, Microsome
[5] = Half life in human liver microsomes; type: ADME, Microsome
Mus musculus = test: Antiarthritic activity against collagen-induced arthritis in DBA/1 mouse chronic CIA model assessed as incidence of arthritis at 30 mg/kg, po after 21 days; type: functional
Rattus norvegicus [6] = test: Antiinflammatory activity in Lewis rat plasma assessed as reduction in LPS-stimulated TNFalpha accumulation at 20 mg/kg, ig administered 4 hrs before LPS challenge measured after […] by ELISA; type: functional; settings: po, route intragastric
Rattus norvegicus [7] = test: Antiinflammatory activity in Lewis rat assessed as reduction in LPS-stimulated TNFalpha accumulation at 1 mg/kg, ig administered 4 hrs before LPS challenge measured after […] by ELISA; type: functional; settings: po, route intragastric
Blood = test: Antiinflammatory activity against LPS-induced TNFalpha production in human whole blood treated 1 hr before LPS challenge measured after 4 hrs by ELISA; type: functional, tissue-based
hERG (KCNH2) = hERG (KCNH2) (Homo sapiens, UniProt Q12809); test: Displacement of dofetilide from human ERG at 10 uM; settings: probe dofetilide
hERG (KCNH2), sequence (Q12809 whole entry): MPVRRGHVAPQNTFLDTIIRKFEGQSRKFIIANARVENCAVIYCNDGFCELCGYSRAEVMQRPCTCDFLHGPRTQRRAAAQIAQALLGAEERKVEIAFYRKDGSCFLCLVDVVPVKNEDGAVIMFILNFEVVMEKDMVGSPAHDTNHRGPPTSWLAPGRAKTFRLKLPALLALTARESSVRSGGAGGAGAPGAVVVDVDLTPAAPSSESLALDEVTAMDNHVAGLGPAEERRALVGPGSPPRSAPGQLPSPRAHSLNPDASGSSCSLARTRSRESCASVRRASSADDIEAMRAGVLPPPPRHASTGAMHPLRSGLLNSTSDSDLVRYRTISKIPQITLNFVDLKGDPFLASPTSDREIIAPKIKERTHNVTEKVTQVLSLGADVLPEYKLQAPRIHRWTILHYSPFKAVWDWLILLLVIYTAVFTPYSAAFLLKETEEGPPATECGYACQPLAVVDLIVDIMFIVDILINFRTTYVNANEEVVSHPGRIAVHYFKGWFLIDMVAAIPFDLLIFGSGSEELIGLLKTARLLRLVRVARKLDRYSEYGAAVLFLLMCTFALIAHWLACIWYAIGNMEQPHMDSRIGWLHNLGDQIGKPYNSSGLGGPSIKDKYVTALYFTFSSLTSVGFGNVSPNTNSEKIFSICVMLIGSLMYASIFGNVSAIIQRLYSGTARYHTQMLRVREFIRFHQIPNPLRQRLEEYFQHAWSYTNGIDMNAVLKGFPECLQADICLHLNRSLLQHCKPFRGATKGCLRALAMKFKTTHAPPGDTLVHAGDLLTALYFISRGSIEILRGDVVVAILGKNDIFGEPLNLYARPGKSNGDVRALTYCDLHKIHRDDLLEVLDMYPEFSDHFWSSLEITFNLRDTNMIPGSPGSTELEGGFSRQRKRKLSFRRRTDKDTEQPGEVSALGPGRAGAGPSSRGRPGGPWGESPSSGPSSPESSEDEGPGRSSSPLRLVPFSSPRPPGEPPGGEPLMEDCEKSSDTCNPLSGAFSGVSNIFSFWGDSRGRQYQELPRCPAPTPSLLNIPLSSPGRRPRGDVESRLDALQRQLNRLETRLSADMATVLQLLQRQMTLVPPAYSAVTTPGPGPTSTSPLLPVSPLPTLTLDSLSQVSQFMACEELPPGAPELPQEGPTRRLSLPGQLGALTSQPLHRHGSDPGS

[8] = Selectivity ratio of IC50 for p38 beta to IC50 for p38alpha
[9] = Clearance in dog at 2.5 mg/kg, iv; type: ADME, organism-based, Canis lupus familiaris; parameters: dose 2.5 mg/kg, route intravenous; settings: in vivo
[10] = Bioavailability in dog at 2.5 mg/kg, iv; type: ADME, organism-based, Canis lupus familiaris; settings: in vivo
[11] = Half life in rat at 5 mg/kg, iv; type: ADME, organism-based; parameters: dose 5 mg/kg, route intravenous; settings: in vivo
[12] = Volume of distribution in rat at 5 mg/kg, iv; type: ADME, organism-based; parameters: dose 5 mg/kg, route intravenous; settings: in vivo
[13] = Volume of distribution in dog at 2.5 mg/kg, iv; type: ADME, organism-based, Canis lupus familiaris; parameters: dose 2.5 mg/kg, route intravenous; settings: in vivo
[14] = Clearance in rat at 5 mg/kg, iv; type: ADME, organism-based; parameters: dose 5 mg/kg, route intravenous; settings: in vivo
[15] = Bioavailability in rat at 5 mg/kg, iv; type: ADME, organism-based; settings: in vivo
[16] = Half life in dog at 2.5 mg/kg, iv; type: ADME, organism-based, Canis lupus familiaris; parameters: dose 2.5 mg/kg, route intravenous; settings: in vivo

Structure (SMILES) | pIC50 [2] | pIC50 [3] | inhibition in vivo at 5 mg/kg (Rattus norvegicus [1]) [%] | further results
O=C(O)CN1CCC(c2[nH]nc(-c3ccc(Cl)cc3)c2-c2ccncc2)CC1 | 6.90 | 5.36 | 20 | 
CC(=O)N1CCC(c2[nH]nc(-c3ccc(Cl)cc3)c2-c2ccncc2)CC1 | 7.17 | 5.50 | 66 | CLint scaled [4]: 22.5 mL/min/kg; half-life [5]: 43.3 min; Activity (Mus musculus): 50%
COCC(=O)N1CCC(c2[nH]nc(-c3ccc(Cl)cc3)c2-c2ccncn2)CC1 |  | 5.49 | 88 | inhibition in vivo at 1 mg/kg (Rattus norvegicus [7]): 71%
COCCN1CCC(c2[nH]nc(-c3ccc(Cl)cc3)c2-c2ccncc2)CC1 | 7.15 | 5.17 | 84 | CLint scaled [4]: 47.7 mL/min/kg; half-life [5]: 21.5 min; Activity (Mus musculus): 22%; inhibition at 10 µM (hERG (KCNH2)): 74%
CN1CCC(c2[nH]nc(-c3ccc(Cl)cc3)c2-c2ccncc2)CC1 | 7.50 | 5.57 | 71 | Ratio IC50 [8]: 84
Clc1ccc(-c2n[nH]c(C3CCN(Cc4ccncc4)CC3)c2-c2ccncn2)cc1 | 7.33 | 5.48 | 27 | 
O=C(CO)N1CCC(c2n[nH]c(-c3ccc(Cl)cc3)c2-c2ccncn2)CC1 [SD-0006] |  | 5.46 | 87 | CLint scaled [4]: < 8 mL/min/kg; clearance [9]: 2.92 mL/min/kg; bioavailability [10]: > 80%; half-life [5]: > 120 min; Activity (Mus musculus): 16%; half-life [11]: 243 min; Vd [12]: 1.74 L/kg; inhibition in vivo at 1 mg/kg (Rattus norvegicus [7]): 81%; Vd [13]: 1.07 L/kg; clearance [14]: 4.96 mL/min/kg; bioavailability [15]: > 80%; inhibition at 10 µM (hERG (KCNH2)): 16%; half-life [16]: 269 min
O[C@H]1CCC[C@@H]1N1CCC(c2[nH]nc(-c3ccc(Cl)cc3)c2-c2ccncn2)CC1 | 7.72 | 5.47 | 70 | inhibition in vivo at 1 mg/kg (Rattus norvegicus [7]): 40%
CN(C)CC(=O)N1CCC(c2[nH]nc(-c3ccc(Cl)cc3)c2-c2ccncc2)CC1 | 7.10 | 5.17 | 85 | 
CN1CCC(c2[nH]nc(-c3ccc(C(F)(F)F)cc3)c2-c2ccncc2)CC1 | 7.39 | 5.42 | 22 | 

Compounds with a higher pIC50 [3], results first:

pIC50 [2] | pIC50 [3] | Structure (SMILES) | inhibition in vivo at 5 mg/kg (Rattus norvegicus [1]) [%] | further results
7.17 | 5.63 | Cc1cccc(-c2n[nH]c(C3CCN(C)CC3)c2-c2ccncc2)c1 |  | inhibition in vivo at 20 mg/kg (Rattus norvegicus [6]): 81%
 | 5.63 | CN1CCC(c2[nH]nc(-c3ccc(Cl)cc3)c2-c2ccncn2)CC1 | 63 | CLint scaled [4]: 31.5 mL/min/kg; half-life [5]: 31.2 min; Activity (Mus musculus): 20%; pIC50 (Blood): 6.10; inhibition in vivo at 1 mg/kg (Rattus norvegicus [7]): 36%; inhibition at 10 µM (hERG (KCNH2)): 51%
 | 5.98 | CN1CCC(c2[nH]nc(-c3cccc(Cl)c3)c2-c2ccncc2)CC1 | 27 | 
7.05 | 5.60 | CN1CCCC(c2[nH]nc(-c3ccc(F)cc3)c2-c2ccncc2)C1 (stereo not drawn) | 63 | Ratio IC50 [8]: 28
7.46 | 5.60 | OCCN1CCC(c2[nH]nc(-c3ccc(Cl)cc3)c2-c2ccncn2)CC1 | 88 | CLint scaled [4]: 21.4 mL/min/kg; half-life [5]: 47.6 min; Activity (Mus musculus): 61%; pIC50 (Blood): 6.31; inhibition in vivo at 1 mg/kg (Rattus norvegicus [7]): 80%; inhibition at 10 µM (hERG (KCNH2)): 46%
7.32 | 6.39 | Fc1ccc(-c2n[nH]c(C3CCCNC3)c2-c2ccncc2)cc1 (stereo not drawn) |  | Ratio IC50 [8]: 6
7.60 | 6.29 | Fc1ccc(-c2n[nH]c(C3CCNCC3)c2-c2ccncc2)cc1 | 2 | 
